Data from patent US10039718B2, “Use of solid carrier particles to improve the processability of a pharmaceutical agent” (Gilead Sciences, Inc., priority 2008, dated 2018).

Assay: Water uptake (hygroscopicity) by dynamic vapor sorption (DVS)
Assay type: physicochemical
Conditions: 75% RH, 25° C., after 1 hour drying under dry nitrogen
Description: The water uptake for AEROPERL® 300 (fumed silica), the Compound, and a sample of AEROPERL® 300 (fumed silica) loaded with 50.0% (w/w) of the Compound was measured as described below.
The compound of formula (I) was dissolved in ethanol and this solution was poured onto a sample of fumed silica that was equal in weight to the amount of the compound of formula (I). The resulting mixture was thoroughly mixed and the solvent was evaporated to provide the compound/AEROPERL® 300 (fumed silica) material used for the uptake study below.
The hygroscopicity of the samples was measured by dynamic vapor sorption (DVS) on a DVS Advantage-1 instrument from Surface Measurement Systems (SMS, Allentown, Pa.). In a DVS experiment the mass increase/decrease of a sample is measured at various relative humidity (RH) levels at a constant temperature. The instrument consists of a microbalance with one pan containing the sample (typically about 5-10 mg of sample) and an empty pan as a reference, and a water vapor generator to produce the desired relative humidity level. All experiments were run at a constant temperature of 25° C. For all experiments the samples were initially dried under a continuous flow of dry nitrogen for 1 hour to establish the dry mass m0. The relative humidity was then increased to 75% and the increase in mass was recorded as the samples take up water.

CC(C)c1nc(CN(C)C(=O)NC(CCN2CCOCC2)C(=O)NC(CCC(Cc2ccccc2)NC(=O)OCc2cncs2)Cc2ccccc2)cs1 (stereo not shown) [the Compound]
water adsorbed (increase in mass at equilibrium): 4.8 % (by weight)
